Source: patent publication US20050282859A1, “Dual acting SNRI-NMDA antagonists for the treatment of genitourinary disorders” (priority 2004, published 2005)
Entries after “also recorded” stand apart in the source; their conditions may differ. Like-named read-outs stand apart in the source and are kept apart here.

Assays:
[1] = tested on: acetic acid-induced bladder irritation; experiment: Acute cat dilute acetic acid model (cystometry, EUS-EMG); type: in vivo; settings: for bladder capacity: intravenous, during acetic acid infusion
Description: The ability of bicifadine and milnacipran, exemplary dual acting SNRI-NMDA antagonists, to reverse the reduction in bladder capacity observed following continuous infusion of dilute acetic acid in a cat model was tested. The cat model is a commonly used model for overactive bladder (Thor and Katofiasc, 1995, J. Pharmacol. Exptl. Ther. 274: 1014-24). Female cats (2.2-3 kg B W Harlan) were anesthetized with 4% isoflurane for induction followed by intravenous administration of α-chloralose (68-75 mg/kg). An i.v. catheter was inserted in the radial vein for drug administration. A heparinized (100 units/ml) saline-filled catheter (PE-90) was inserted into the carotid artery to monitor blood pressure. A trachea tube was place to monitor respiration. Via a midline lower abdominal incision, a modified 16 gauge i.v. catheter was inserted into the bladder dome for bladder filling and pressure recording. The abdominal cavity was moistened with saline and closed by covering with a thin plastic sheet in order to maintain access to the bladder for emptying purposes. Fine silver or stainless steel wire electrodes were inserted intraurethrally into the external urethral sphincter (EUS) for electromyography (EMG). Saline was continuously infused at a rate of 0.5-1 ml(s)/min via the bladder catheter for 60 minutes to obtain baseline of lower urinary tract activity (continuous cystometry; CMG). Following the control period, a 0.5% acetic acid (AA) solution in saline was infused into the bladder at the same flow rate to induce bladder irritation. Following 30 minutes of AA infusion, in one example, 1-2 vehicle injections were made at 30 minute intervals to determine vehicle effects, if any. Subsequently, increasing doses of bicifadine (0.1, 0.3, 1, 3 and 10 mg/kg) were administered intravenously at 30-60 minute intervals in order to construct a cumulative dose-response relationship (n=6). At the end of the control saline cystometry period, the vehicle, and 15 minutes following each subsequent treatment, the infusion pump was stopped, the bladder was emptied by fluid withdrawal via the infusion catheter and a single filling cystometrogram was performed at the same flow rate in order to determine changes in bladder capacity caused by the irritation protocol and subsequent drug administration. In a second example, subsequent to AA infusion, a vehicle injection was made to ensure that there were no vehicle effects. 10 mg/kg of milnacipran was then administered intravenously. The external urethral EMG activity, bladder pressure, and volume voided was measured during saline infusion, during AA infusion, and subsequent to milnacipran administration. Data for bicifadine were analyzed by non-parametric ANOVA for repeated measures (Friedman Test) with Dunn's Multiple Comparison test for cumulative dose-response studies. All comparisons were made from the last vehicle measurement. P<0.050 was considered significant.

[2] = tested on: acetic acid-induced bladder irritation; settings: cat, S-norfluoxetine at 3 and 10 mg/kg; cited from earlier work
[3] = tested on: acetic acid-induced bladder irritation; experiment: Acute rat dilute acetic acid model (cystometry); type: in vivo; settings: acetic acid infusion compared to vehicle
Text: The acute models described below provide methods for evaluating active agents in the treatment of overactive bladder. Briefly, the models provide a method for reducing the bladder capacity of test animals by infusing either protamine sulfate and potassium chloride (See, Chuang, Y. C. et al., Urology 61(3): 664-670 (2003)) or dilute acetic acid (See, Thor, K. and Katofiasc., M., 1995, J. Pharmacol. Exptl. Ther., 274:1014-1024; Sasaki, K. et al, J. Urol. 168(3) 1259-1264 (2002)) into the bladder. The infusates cause irritation of the bladder and a reduction in bladder capacity by selectively activating bladder afferent fibers, such as C-fiber afferents. Following irritation of the bladder, an active agent (drug) can be administered and the ability of the active agent to reverse (partially or totally) the reduction in bladder capacity resulting from the irritation, can be determined. Substances which reverse the reduction in bladder capacity can be used in the treatment of overactive bladder. Female rats (250-275 g) were anesthetized with urethane (1.2 g/kg) and a saline-filled jugular catheter (PE-50) was inserted for intravenous drug administration and a heparinized (100 units/ml) saline-filled carotid catheter (PE-50) was inserted for blood pressure monitoring. Via a midline abdominal incision from xyphoid to navel, a PE-50 catheter was inserted into the bladder dome for bladder filling and pressure recording. The abdominal cavity was moistened with saline and closed by covering with a thin plastic sheet in order to maintain access to the bladder for filling cystometry emptying purposes. […] Data for bicifadine were analyzed by non-parametric ANOVA for repeated measures (Friedman Test) with Dunn's Multiple Comparison test for cumulative dose-response studies. […] Additionally, % voiding efficiency was calculated using the following formula: ([…]/(Single Cystometrogram Bladder Capacity))*100 for bicifadine.

[4] = i.v. cumulative doses 0.1-10 mg/kg

CCN(CC)C(=O)C1(c2ccccc2)CC1CN (stereo not drawn) [milnacipran]
sphincter EMG activity ([1]; 10 mg/kg i.v., acetic acid infusion): unexpected increase | increase in bladder capacity ([1]; 10 mg/kg i.v., acetic acid infusion compared to control): ~2 fold | increase in sphincter EMG activity, Root Mean Square ([1]; 10 mg/kg i.v., during the period following the bladder contraction): 82.5 millivolts | increase in sphincter EMG activity, Root Mean Square ([1]; 10 mg/kg i.v., during the period of bladder filling): 19.4 millivolts | bladder capacity [1]: significant increase

CNCC[C@H](Oc1cccc2ccccc12)c1cccs1 [duloxetine]
bladder capacity [2]: markedly increases | urethral sphincter electromyographic (EMG) activity [2]: markedly increases

Cc1ccc(C23CNCC2C3)cc1 (stereo not drawn) [bicifadine]
increase in bladder capacity ([3]; 1-10 mg/kg i.v. cumulative doses): ~100% | effect on bladder capacity ([3]; all doses (1, 3, 10 mg/kg i.v.)): had an effect on the bladder capacity | voiding efficiency ([3]; increasing i.v. doses): not effected; also recorded: basically unaffected | increase in bladder capacity ([1]; 1-10 mg/kg i.v. cumulative doses, acetic acid infusion compared to vehicle): 3 fold | increase in voiding efficiency ([1]; 1-10 mg/kg i.v., acetic acid infusion compared to vehicle): ~10% | increases in sphincter EMG during bladder filling ([1]; i.v. bicifadine, n=6 experiments): seen in two of the six experiments | arterial pressure [1, 4]: No significant decrease; also recorded: No significant changes | heart rate [1, 4]: No significant changes | contraction frequency (bladder overactivity) during continuous cystometry ([1]; i.v., 1-10 mg/kg, acetic acid infusion): reduced bladder overactivity; also recorded: dose dependent decrease from 1-10 mg/kg but this was not significant | bladder capacity [1]: significant increase | sphincter EMG activity during micturition contractions (bladder-sphincter synergy) ([1]; the two experiments with increased sphincter EMG): inhibited during micturition contractions

CNCCC(Oc1ccccc1SC)c1ccccc1 (stereo not drawn) [thionisoxetine]
bladder capacity [2]: no effects | urethral sphincter electromyographic (EMG) activity [2]: no effects

COc1ccc(C(CN(C)C)C2(O)CCCCC2)cc1 (stereo not drawn) [venlafaxine]
bladder capacity [2]: markedly increases | urethral sphincter electromyographic (EMG) activity [2]: markedly increases

NCC[C@H](Oc1ccc(C(F)(F)F)cc1)c1ccccc1 [S-norfluoxetine]
bladder capacity [2]: small increases | urethral sphincter electromyographic (EMG) activity [2]: small increases
